In patent US9096524B2, “Anthelmintic agents and their use” (Intervet International B.V., priority 2009, dated 2015):
Read-outs that look alike come from different tables or passages of the source.

Experiments:
[1] = system: A. galli (intestinal roundworm of chicken) larval stage 3; O. dentatum (nodular worm of swine) larval stages 3 and 4; test: Activity against Ascaridia galli and Oesophagostomum dentatum larvae in vitro (minimum effective concentration); format: cell-based
Haemonchus contortus = test: Efficacy against Haemonchus contortus in jirds; format: in vivo, jirds (Meriones unguiculatus); settings: 72 h, read-out: % Reduction in H.
Procedure: Anthelmintic effects of compounds of this invention were tested in vivo using Haemonchus contuortus in jirds (Meriones unguiculatus). The jirds were orally infected with approximately 750-3,000 third-stage larvae of Haemonchus contortus. Ten days after infection, the jirds in the treatment groups were treated once orally or subcutaneously at a dose of 2, 10, and/or 50 mg per kg bodyweight. Three days after treatment, the jirds were necropsied, and the larvae burden in the stomach is determined. The efficacy is defined as the reduction of the mean larvae count in the jirds of the treatment groups in comparison to the infected jirds in the untreated negative control group.

[2] = read-out: MEC (minimum effective concentration) against one or more of the tested nematodes, in vitro, one or more of A. galli L3, O. dentatum L3, L4, threshold 1 μM
[3] = read-out: MEC (minimum effective concentration) against one or more of the tested nematodes, in vitro, one or more of A. galli L3, O. dentatum L3, L4, threshold 7 μM
[4] = read-out: MEC (minimum effective concentration) against two or more of the tested nematodes, in vitro, two or more of A. galli L3, O. dentatum L3, L4, threshold 1 μM
[5] = jirds, 50 mg/kg, oral, single treatment, larvae burden in stomach 3 days after treatment
[6] = sc, jirds, 50 mg/kg, subcutaneous, single treatment, larvae burden in stomach 3 days after treatment

CSc1ccc(NC2CCN(C(=O)CCCN3CCN(c4ccc(C(F)(F)F)cc4)CC3)CC2)cc1C(F)(F)F [Example 5, 1-[4-(4-methylsulfanyl-3-trifluoromethyl-phenylamino)-piperidin-1-yl]-4-[4-(4-trifluoromethyl-phenyl)-piperazin-1-yl]-butan-1-one]
minimal effective concentration [1, 2]: < 1 µM | minimal effective concentration [1, 3]: < 7 µM | minimal effective concentration [1, 4]: < 1 µM | inhibition in vivo at 50 mg/kg (Haemonchus contortus; po): 87% | inhibition in vivo at 50 mg/kg (Haemonchus contortus; sc): 99%

N#Cc1cccc(NC2CCN(C(=O)CCCN3CCN(c4ccc(C(F)(F)F)cc4)CC3)CC2)c1 [Example 7, 3-(1-{4-[4-(4-trifluoromethyl-phenyl)-piperazin-1-yl]-butyryl}-piperidin-4-ylamino)-benzonitrile]
minimal effective concentration [1, 2]: < 1 µM | minimal effective concentration [1, 3]: < 7 µM | minimal effective concentration [1, 4]: < 1 µM | inhibition in vivo at 50 mg/kg (Haemonchus contortus; po): 99% | inhibition in vivo at 50 mg/kg (Haemonchus contortus; sc): 98%

O=C(COC1CCN(c2ccc(C(F)(F)F)cc2)CC1)N1CCC(Nc2ccc([N+](=O)[O-])c(C(F)(F)F)c2)CC1 [Example 12, 1-[4-(4-nitro-3-trifluoromethyl-phenylamino)-piperidin-1-yl]-2-[1-(4-trifluoromethyl-phenyl)-piperidin-4-yloxy]-ethanone]
minimal effective concentration [1, 2]: < 1 µM | minimal effective concentration [1, 3]: < 7 µM | minimal effective concentration [1, 4]: < 1 µM | inhibition in vivo at 50 mg/kg (Haemonchus contortus; po): 96% | inhibition in vivo at 50 mg/kg (Haemonchus contortus; sc): 100%

O=C(CCN1CCC(c2ccc(C(F)(F)F)cc2)CC1)N1CCC(Nc2ccc([N+](=O)[O-])c(C(F)(F)F)c2)CC1 [Example 14, 1-[4-(4-nitro-3-trifluoromethyl-phenylamino)-piperidin-1-yl]-3-[4-(4-trifluoromethyl-phenyl)-piperidin-1-yl]-propan-1-one]
minimal effective concentration [1, 2]: < 1 µM | minimal effective concentration [1, 3]: < 7 µM | minimal effective concentration [1, 4]: < 1 µM | inhibition in vivo at 50 mg/kg (Haemonchus contortus; po): 87% | inhibition in vivo at 50 mg/kg (Haemonchus contortus; sc): 99%

O=C(CCCN1CCN(c2ccc(C(F)(F)F)cc2)CC1)N1CCC(Nc2ccc(Cl)c(SC(F)(F)F)c2)CC1 [Example 17, 1-[4-(4-chloro-3-trifluoromethylsulfanyl-phenylamino)-piperidin-1-yl]-4-[4-(4-trifluoromethyl-phenyl)-piperazin-1-yl]-butan-1-one]
minimal effective concentration [1, 2]: < 1 µM | minimal effective concentration [1, 3]: < 7 µM | minimal effective concentration [1, 4]: < 1 µM | inhibition in vivo at 50 mg/kg (Haemonchus contortus; po): 100% | inhibition in vivo at 50 mg/kg (Haemonchus contortus; sc): 96%

Cn1nnc(-c2ccc(NC3CCN(C(=O)CCCN4CCN(c5ccc(C(F)(F)F)cc5)CC4)CC3)cc2)n1 [Example 21, 1-{4-[4-(2-methyl-1H-tetrazol-5-yl)-phenylamino]-piperidin-1-yl}-4-[4-(4-trifluoromethyl-phenyl)-piperazin-1-yl]-butan-1-one]
minimal effective concentration [1, 2]: < 1 µM | minimal effective concentration [1, 3]: < 7 µM | minimal effective concentration [1, 4]: < 1 µM | inhibition in vivo at 50 mg/kg (Haemonchus contortus; po): 95% | inhibition in vivo at 50 mg/kg (Haemonchus contortus; sc): 38%

O=C(CCN1CCN(c2ccc(OCc3ccccc3)cc2)CC1)N1CCC(Nc2ccc([N+](=O)[O-])c(C(F)(F)F)c2)CC1 [Example 23, 3-[4-(4-benzyloxy-phenyl)-piperazin-1-yl]-1-[4-(4-nitro-3-trifluoromethyl-phenylamino)-piperidin-1-yl]-propan-1-one]
minimal effective concentration [1, 2]: < 1 µM | minimal effective concentration [1, 3]: < 7 µM | minimal effective concentration [1, 4]: < 1 µM | inhibition in vivo at 50 mg/kg (Haemonchus contortus; po): 66% | inhibition in vivo at 50 mg/kg (Haemonchus contortus; sc): 92%

CC(C)COc1ccc(N2CCN(CCC(=O)N3CCC(Nc4ccc([N+](=O)[O-])c(C(F)(F)F)c4)CC3)CC2)cc1 [Example 26, 3-[4-(4-isobutoxy-phenyl)-piperazin-1-yl]-1-[4-(4-nitro-3-trifluoromethyl-phenylamino)-piperidin-1-yl]-propan-1-one]
minimal effective concentration [1, 2]: < 1 µM | minimal effective concentration [1, 3]: < 7 µM | minimal effective concentration [1, 4]: < 1 µM | inhibition in vivo at 50 mg/kg (Haemonchus contortus; po): 64% | inhibition in vivo at 50 mg/kg (Haemonchus contortus; sc): 91%

CS(=O)(=O)c1ccc(NC2CCN(C(=O)CCCN3CCN(c4ccc(C(F)(F)F)cc4)CC3)CC2)cc1C(F)(F)F [Example 30, 1-[4-(4-methanesulfonyl-3-trifluoromethyl-phenylamino)-piperidin-1-yl]-4-[4-(4-trifluoromethyl-phenyl)-piperazin-1-yl]-butan-1-one]
minimal effective concentration [1, 2]: < 1 µM | minimal effective concentration [1, 3]: < 7 µM | minimal effective concentration [1, 4]: < 1 µM | inhibition in vivo at 50 mg/kg (Haemonchus contortus; po): 62% | inhibition in vivo at 50 mg/kg (Haemonchus contortus; sc): 69%

O=C(CCCN1CCN(c2ccc(C(F)(F)F)cc2)CC1)N1CCC(Nc2ccc(S(=O)(=O)c3ccc(F)cc3)cc2)CC1 [Example 33, 1-{4-[4-(4-fluoro-benzenesulfonyl)-phenylamino]-piperidin-1-yl}-4-[4-(4-trifluoromethyl-phenyl)-piperazin-1-yl]-butan-1-one]
minimal effective concentration [1, 2]: < 1 µM | minimal effective concentration [1, 3]: < 7 µM | minimal effective concentration [1, 4]: < 1 µM | inhibition in vivo at 50 mg/kg (Haemonchus contortus; po): 55% | inhibition in vivo at 50 mg/kg (Haemonchus contortus; sc): 69%

CC(C)(C)c1ccc(N2CCN(CCC(=O)N3CCC(Nc4ccc([N+](=O)[O-])c(C(F)(F)F)c4)CC3)CC2)cc1 [Example 35, 3-[4-(4-tert-butyl-phenyl)-piperazin-1-yl]-1-[4-(4-nitro-3-trifluoromethyl-phenylamino)-piperidin-1-yl]-propan-1-one]
minimal effective concentration [1, 2]: < 1 µM | minimal effective concentration [1, 3]: < 7 µM | minimal effective concentration [1, 4]: < 1 µM | inhibition in vivo at 50 mg/kg (Haemonchus contortus; po): 45% | inhibition in vivo at 50 mg/kg (Haemonchus contortus; sc): 93%

O=C(CCN1CCN(c2ccc(OCc3ccccc3)cc2)CC1)N1CCC(Oc2ccc([N+](=O)[O-])c(C(F)(F)F)c2)CC1 [Example 58, 3-[4-(4-benzyloxy-phenyl)-piperazin-1-yl]-1-[4-(4-nitro-3-trifluoromethyl-phenoxy)-piperidin-1-yl]-propan-1-one]
inhibition in vivo at 50 mg/kg (Haemonchus contortus; po): 0% | inhibition in vivo at 50 mg/kg (Haemonchus contortus; sc): 59%

O=C(CCCN1CCN(c2ccc(C(F)(F)F)cc2)CC1)N1CCC(Nc2ccc([N+](=O)[O-])c(C(F)(F)F)c2)CC1 [Example 89, 1-[4-(4-nitro-3-trifluoromethyl-phenylamino)-piperidin-1-yl]-4-[4-(4-trifluoromethyl-phenyl)-piperazin-1-yl]-butan-1-one]
inhibition in vivo at 10 mg/kg (Haemonchus contortus; po): 99% | inhibition in vivo at 10 mg/kg (Haemonchus contortus; sc): 98%

CC(C)(C)c1ccc(N2CCN(CCCC(=O)N3CCC(Nc4ccc([N+](=O)[O-])c(C(F)(F)F)c4)CC3)CC2)cc1 [Example 90, 4-[4-(4-tert-butyl-phenyl)-piperazin-1-yl]-1-[4-(4-nitro-3-trifluoromethyl-phenylamino)-piperidin-1-yl]-butan-1-one]
inhibition in vivo at 10 mg/kg (Haemonchus contortus; po): 46% | inhibition in vivo at 10 mg/kg (Haemonchus contortus; sc): 42%

CC(CN1CCN(c2ccc(C(F)(F)F)cc2)CC1)C(=O)N1CCC(Nc2ccc(C#N)c(C(F)(F)F)c2)CC1 (stereo not drawn) [Example 92, 4-(1-{2-methyl-3-[4-(4-trifluoromethyl-phenyl)-piperazin-1-yl]-propionyl}-piperidin-4-ylamino)-2-trifluoromethyl-benzonitrile]
inhibition in vivo at 50 mg/kg (Haemonchus contortus; [5]): 100% | inhibition in vivo at 50 mg/kg (Haemonchus contortus; [6]): 91%

N#Cc1ccc(NC2CCN(C(=O)CCCN3CCN(c4ccc(C(F)(F)F)cn4)CC3)CC2)cc1C(F)(F)F [Example 157, 2-trifluoromethyl-4-(1-{4-[4-(5-trifluoromethyl-pyridin-2-yl)-piperazin-1-yl]-butyryl}-piperidin-4-ylamino)-benzonitrile]
inhibition in vivo at 10 mg/kg (Haemonchus contortus; jirds, 10 mg/kg, oral, single treatment, larvae burden in stomach 3 days after treatment): 96% | inhibition in vivo at 10 mg/kg (Haemonchus contortus; sc, jirds, 10 mg/kg, subcutaneous, single treatment, larvae burden in stomach 3 days after treatment): 93%

CCOc1cc(NC2CCN(C(=O)CCN3CCC(c4ccc(Cl)cc4)CC3)CC2)ccc1[N+](=O)[O-] [Example 414]
inhibition in vivo at 50 mg/kg (Haemonchus contortus; [5]): 0% | inhibition in vivo at 50 mg/kg (Haemonchus contortus; [6]): 98%

CC(C)(C)c1ccc(N2CCC(OCC(=O)N3CCC(Nc4ccc([N+](=O)[O-])c(C(F)(F)F)c4)CC3)CC2)cc1 [Example 416]
inhibition in vivo at 50 mg/kg (Haemonchus contortus; [5]): 88% | inhibition in vivo at 50 mg/kg (Haemonchus contortus; [6]): 98%

CCCc1ccc(C2CCN(CCC(=O)N3CCC(Oc4ccc([N+](=O)[O-])c(OCC(C)C)c4)CC3)CC2)cc1 [Example 532]
inhibition in vivo at 50 mg/kg (Haemonchus contortus; [5]): 90% | inhibition in vivo at 50 mg/kg (Haemonchus contortus; [6]): 99%

CC(C)COc1cc(OC2CCN(C(=O)CCN3CCC(c4ccc(C(C)(C)C)cc4)CC3)CC2)ccc1[N+](=O)[O-] [Example 533]
inhibition in vivo at 50 mg/kg (Haemonchus contortus; [5]): 83% | inhibition in vivo at 50 mg/kg (Haemonchus contortus; [6]): 74%

O=C(NCC1CCN(c2ccc(C(F)(F)F)cc2)CC1)N1CCC(Nc2ccc([N+](=O)[O-])c(C(F)(F)F)c2)CC1 [Example 539]
inhibition in vivo at 50 mg/kg (Haemonchus contortus; [5]): 82% | inhibition in vivo at 50 mg/kg (Haemonchus contortus; [6]): 73%

CN(CC1CCN(c2ccccc2)CC1)C(=O)N1CCC(Nc2ccc([N+](=O)[O-])c(C(F)(F)F)c2)CC1 [Example 565]
inhibition in vivo at 50 mg/kg (Haemonchus contortus; [5]): 70% | inhibition in vivo at 50 mg/kg (Haemonchus contortus; [6]): 90%

Cc1ccc(N2CCC(CN(C)C(=O)N3CCC(Nc4ccc([N+](=O)[O-])c(C(F)(F)F)c4)CC3)CC2)cc1 [Example 566]
inhibition in vivo at 50 mg/kg (Haemonchus contortus; [5]): 83% | inhibition in vivo at 50 mg/kg (Haemonchus contortus; [6]): 93%

CC(CN1CCN(c2ccc(Cl)cc2)CC1)C(=O)N1CCC(Nc2ccc(C#N)c(C(F)(F)F)c2)CC1 (stereo not drawn) [Example 581]
inhibition in vivo at 50 mg/kg (Haemonchus contortus; po): 68% | inhibition in vivo at 50 mg/kg (Haemonchus contortus; sc): 10%
